Source: patent publication US6407075B1, “Fatty acid treatment” (priority 1996, dated 2002)

How the values were obtained:
[1] = tested on: cardiotoxicity of doxorubicin; test: Cardiotoxicity of doxorubicin in mice pre-treated with fatty acids; format: in vivo; conditions: 20 mg doxorubicin intraperitoneally, fatty acid pre-treatment
[2] = tested on: lung toxicity of bleomycin; test: Lung toxicity (fibrosis) of intratracheal bleomycin in animals; format: in vivo; conditions: bleomycin into the trachea, about 5-10 IU per kg body weight, 2-4 weeks
Protocol: We have recently supported the clinical observations by animal studies on the cardiotoxicity of doxorubicin and the lung toxicity of bleomycin. When 20 mg of doxorubicin (DOX) is given intraperitoneally to mice, the animals usually die within two weeks because of cardiac damage. When animals were pre-treated with LA or with GLA or with EPA or with DHA in various doses and chemical forms, the death rate to the same dose of doxorubicin was reduced to between 20% and 60% depending on the dose and the precise chemical administered. […] Similarly, bleomycin introduced into the trachea of animals under anaesthesia at a dose of about 5-10 IU per kg body weight, within 2-4 weeks the animals develop severe lung fibrosis which is very similar to the fibrosis which occurs in human patients treated with bleomycin. […] In a third animal study, the anti-cancer streptozotocin was used. A major effect of this compound is to damage the islet cells of the pancreas and consequently to lead to insulin dependent diabetes.

[3] = tested on: streptozotocin damage to the islet cells of the pancreas; test: Streptozotocin-induced diabetes in rats; format: in vivo; conditions: fatty acid administered prior to streptozotocin
Description: In a third animal study, the anti-cancer streptozotocin was used. A major effect of this compound is to damage the islet cells of the pancreas and consequently to lead to insulin dependent diabetes.

[4] = tested on: toxic side effects of chemotherapy; test: Clinical observations in cancer patients receiving conventional chemotherapy plus fatty acids; format: in vivo, human patients; conditions: patients receiving conventional chemotherapy and the fatty acid at the same time
Description: In many instances, the fatty acids have been given to patients who at that same time were receiving conventional chemotherapy for their cancer.

[5] = tested on: side effects of chemotherapy; test: Case histories of patients given fatty acid derivatives with chemotherapy; format: in vivo, human patients
Description: The following histories illustrate use of the invention
This chemotherapy regime normally causes severe vomiting and nausea, marked malaise and anorexia.
C. […] The chemotherapy regime normally causes nausea, vomiting, mucositis and white cell suppression.
This normally causes nausea, vomiting, white cell suppression and mucositis.

[6] = case D, metastatic colon cancer, 5-fluorouracil, 3 g/day from two weeks before and during chemotherapy
[7] = case C, breast cancer, 'CMF' regime, 30 g cumulative intravenously, then 2 g/day oral

## CCCCC/C=C\C/C=C\CCCCCCCC(=O)O [LA, linoleic acid]
[1]
  reduction in cardiac weight characteristic of doxorubicin toxicity: considerably attenuated
[2]
  lung pathological changes and increased production of fibrous tissue: almost entirely suppress
[3]
  likelihood of the development of diabetes: greatly reduced
[4]
  toxic side effects of chemotherapy: substantially reduced

## CC/C=C\C/C=C\C/C=C\C/C=C\C/C=C\C/C=C\CCC(=O)O [DHA, docosahexaenoic acid]
[4]
  toxic side effects of chemotherapy: substantially reduced

## CCCCC/C=C\C/C=C\C/C=C\CCCCC(=O)O [GLA, gamma-linolenic acid]
[1]
  reduction in cardiac weight characteristic of doxorubicin toxicity: considerably attenuated
[2]
  lung pathological changes and increased production of fibrous tissue: almost entirely suppress
[3]
  likelihood of the development of diabetes: greatly reduced
[4]
  toxic side effects of chemotherapy: substantially reduced

## dilinoleoyl-monogammalinolenoyl-glycerol [DLMG]
[5]; case A, glioblastoma patient, carmustine
  general well-being: felt well throughout
[5]; case A, glioblastoma patient, carmustine, given prior to and during the course
  nausea: only very mild nausea

## CC/C=C\C/C=C\C/C=C\C/C=C\C/C=C\CCCC(=O)O [EPA, eicosapentaenoic acid]
[4]
  toxic side effects of chemotherapy: substantially reduced

## CC/C=C\C/C=C\C/C=C\C/C=C\C/C=C\CCCC(=O)OCC(COC(=O)CCC/C=C\C/C=C\C/C=C\C/C=C\C/C=C\CC)OC(=O)CCC/C=C\C/C=C\C/C=C\C/C=C\C/C=C\CC [triglyceride of eicosapentaenoic acid]
[5]; [6]
  nausea and white cell suppression: less than expected
  vomiting or mucositis: no vomiting or mucositis

## CCCCC/C=C\C/C=C\C/C=C\CCCCC(=O)[O-].[Li+] [lithium salt of gammalinolenic acid]
[5]; case B, Hodgkin's disease, 'MOPP' regime, 3 g per day orally
  general well-being: remained well and able to continue working
[5]; case B, Hodgkin's disease, 'MOPP' regime, 3 g per day orally from one week before and throughout chemotherapy
  nausea: only mild nausea
[5]; [7]
  nausea: only mild nausea
  suppression of the white cell count: less than expected
  vomiting or mucositis: no vomiting or mucositis
